Values after ≈ are worked out from the molar mass of the structure shown. Like-named read-outs stand apart in the source and are kept apart here. Marks after values point to notes of the source that are not given here. Starred links: 1 amine or outer side, 2 acyl side, 3 side chain; linkers in the order of their positions; H or OH if unused. Non-standard residues stand in square brackets, D forms with d. Residues, ends and D or L forms follow the SMILES beside them. Groups on a side chain read outwards from the residue. *: point of attachment. X1 = CCCCCCCCCCCCCCCC(=O)N[C@@H](CCC(=O)N[C@@H](CCC(=O)N[C@@H](CCC(=O)NCCCOCCOCCOCCCNC(=O)CCC(=O)NCCCOCCOCCOCCCNC(=O)CCC(=O)NCCCOCCOCCOCCCN*)C(=O)O)C(=O)O)C(=O)O; X2 = CCCCCCCCCCCCCCCC(=O)N[C@@H](CCC(=O)N[C@@H](CCC(=O)N[C@@H](CCC(=O)NCCCOCCOCCOCCCNC(=O)CCC(=O)NCCCOCCOCCOCCCN*)C(=O)O)C(=O)O)C(=O)O; Suc = O=C(CCC(=O)[*:2])[*:1]; αMeK = C[C@](N)(CCCCN)C(=O)O; Aib = CC(C)(N)C(=O)O
Columns and labels:
[1] = Solubility testing in buffer; format: physicochemical; settings: target solubility 10.0 mg/ml
[2] = Stability in human plasma; format: in vitro ADME; settings: for Human Plasma stability % remaining: T = 0, 37° C., 5 μM; for remaining at 1 h, 5 μM / remaining at 4 h, 5 μM: human, plasma (sodium or lithium heparin), 37° C.
Protocol: (§1) Prior to the testing of stability in plasma (or blood) of a peptide batch, its purity (HPLC-UV) was determined.
Rat and Human plasma: anti-coagulant sodium or lithium heparin.
(§2) 100 μM solution of study compound in 50 mM phosphate buffer pH 7.4.
(§3) 950 μL plasma (or blood) was pre-incubated for 5 min at 37° C. 50 μL of compound stock solution was added. Final compound concentration=5 μM. Vortex and transfer 150 μL plasma (or blood) into an Eppendorf for each time point. The time points […] were carried out in duplicate for each species.
(§4) After incubation, 150 μL plasma (or blood) was extracted with 600 μL Acetonitrile containing 1% TFA. Said mixture was then vortexed and centrifuged 10 min at 14600 rpm. 200 μL supernatant was dried under N2. Sample was then reconstituted in 200 μL of H2O/CH3CN 98/2+0.1% FA+50 ng/ml Labetalol and analyzed using the analytical system used in solubility and stability studies.
(§5) For determination of the amount of the remaining peptide, the peak areas of the target compound at t0 and each time point […] were compared, resulting in “% remaining peptide”, following the equation: % remaining peptide=[(peak area peptide time)×100]/peak area peptide t0. The stability was expressed as “% remaining peptide”.

[3] = Stability in human blood; format: in vitro ADME; settings: for Human blood stability % remaining: T = 0, 37° C., 5 μM; for remaining at 1 h, 5 μM / remaining at 4 h, 5 μM: human, whole blood (sodium or lithium heparin), 37° C.
Protocol: as §1
(§6) Rat and Human blood: anti-coagulant sodium or lithium heparin.
as §2, §3, §4, §5

[4] = Stability in rat blood; format: in vitro ADME; settings: for Rat blood stability % remaining: T = 0, 37° C., 5 μM; for remaining at 1 h, 5 μM / remaining at 4 h, 5 μM: rat, whole blood (sodium or lithium heparin), 37° C.
Protocol: as §1, §6, §2, §3, §4, §5

[5] = in vivo; parameters: species or system Sprague Dawley rats; settings: Sprague Dawley, rat; for bioavailability / Cmax / Tmax: sc; for Cmax / Tmax: 3 mg/kg
Protocol: Prior to the testing of a peptide batch, its purity (HPLC-UV) was determined. Dose was corrected for presence of salts, solvent and purity. Bioanalytical screening method for quantification of peptides in rat: Sprague Dawley rats were dosed with study peptide at a dose of 1 mg/kg intravenously (i.v.) or 3 mg/kg subcutaneously (s.c.) as a solution in PBS (0.2 mg/ml and 0.6 mg/ml respectively). Blood samples were collected after: 0.083, 0.25, 0.5, 1, 2, 4, 8, 24, 48 and 72 h (i.v. route) and 0.25, 0.5, 1, 2, 4, 6, 8, 10, 24, 48 and 72 h (s.c route) post application. Plasma samples were analyzed after protein precipitation via liquid chromatography mass spectrometry (LC/MS). PK parameters and half-life were calculated using Phoenix 64 (WinNonlin 6.4)-Pharsight (Certara™) (non-compartment model). Values below the limit of quantification (BLQ) were replaced by zero for subsequent calculations and PK analysis. T½: in-vivo half-life, time required for test compound plasma concentration to be divided by two during the PK experiment. C0: Extrapolated test compound plasma concentration at t=0 time point (i.v. route). Cmax: maximal test compound plasma concentration at the indicated time point (s.c. route). Tmax: Time point where Cmax was attained. F %: s.c. vs i.v. bioavailability, dose-corrected area under curve (AUC) s.c. route divided by AUC i.v.

[6] = acetate buffer 50 mM pH 4.5, read-out: Solubility Acetate buffer pH 4.5
[7] = phosphate buffer 50 mM pH 7.4, read-out: Solubility phosphate buffer pH 7.4

Row | solubility [1, 6] | solubility [1, 7] | Human Plasma stability % remaining [2] | remaining at 1 h, 5 μM [2] | remaining at 4 h, 5 μM [2] | Human blood stability % remaining [3] | remaining at 1 h, 5 μM [3] | remaining at 4 h, 5 μM [3] | Rat blood stability % remaining [4] | remaining at 1 h, 5 μM [4] | remaining at 4 h, 5 μM [4] | C0 ([5]; iv, 1 mg/kg) | T½ (h), in-vivo half-life ([5]; iv, 1 mg/kg) | bioavailability [5] | Cmax [5] | Tmax [5] | half-life ([5]; iv, 1 mg/kg) | Structure (SMILES)
1 | 11.1 mg/mL (≈ 2550 µM) | 11.5 mg/mL (≈ 2640 µM) | 99% | 95% | 100% | 100* % | 95% | 95% | 100* % | 95% | 84% | 3200 nM | 7.8 h | 83% | 2300 nM | 8 h |  | CCCCCCCCCCCCCCCC(=O)N[C@@H](CCC(=O)N[C@@H](CCC(=O)N[C@@H](CCC(=O)NCCCOCCOCCOCCCNC(=O)CCC(=O)NCCCOCCOCCOCCCNC(=O)CCC(=O)NCCCOCCOCCOCCCNC(=O)CCC(=O)NCCCC[C@H](NC(=O)CNC(=O)[C@H](CCC(=O)O)NC(=O)C(C)(C)NC(=O)C(C)(C)NC(=O)[C@@H](NC(=O)[C@H](CCCCNC(C)=O)NC(=O)[C@H](C)NC(=O)[C@H](CCCNC(=N)N)NC(=O)[C@@H](NC(=O)[C@H](CCCCN)NC(=O)[C@H](CCC(=O)O)NC(=O)[C@H](CCCNC(=N)N)NC(=O)CNC(=O)[C@H](CCC(=O)O)NC(=O)[C@H](CC(C)C)NC(C)=O)C(C)C)[C@@H](C)CC)C(=O)N[C@@H](CO)C(=O)N[C@H](C(=O)N[C@@H](Cc1ccccc1)C(=O)N[C@@H](CO)C(=O)N[C@@](C)(CCCCN)C(=O)N[C@@H](CCCNC(=N)N)C(=O)N[C@@H](C)C(=O)N[C@@H](CCCCNC(C)=O)C(N)=O)[C@@H](C)O)C(=O)O)C(=O)O)C(=O)O [compound 3] (Ac-LEGREKVRAK(Ac)I[Aib][Aib]EGK([Suc-X1])STFS[αMeK]RAK(Ac)-NH2)
2 | 9.63 mg/mL (≈ 2350 µM) | 7.71 mg/mL (≈ 1880 µM) | 100% | 100% | 100% | 100* % | 100% | 99% | 100* % | 102% | 86% | 2750 nM |  | 69% | 1990 nM | 8 h | 8.71 h | CCCCCCCCCCCCCCCC(=O)N[C@@H](CCC(=O)N[C@@H](CCC(=O)N[C@@H](CCC(=O)NCCCOCCOCCOCCCNC(=O)CCC(=O)NCCCOCCOCCOCCCNC(=O)CCC(=O)NCCCC[C@H](NC(=O)CNC(=O)[C@H](CCC(=O)O)NC(=O)C(C)(C)NC(=O)C(C)(C)NC(=O)[C@@H](NC(=O)[C@H](CCCCNC(C)=O)NC(=O)[C@H](C)NC(=O)[C@H](CCCNC(=N)N)NC(=O)[C@@H](NC(=O)[C@H](CCCCN)NC(=O)[C@H](CCC(=O)O)NC(=O)[C@H](CCCNC(=N)N)NC(=O)CNC(=O)[C@H](CCC(=O)O)NC(=O)[C@H](CC(C)C)NC(C)=O)C(C)C)[C@@H](C)CC)C(=O)N[C@@H](CO)C(=O)N[C@H](C(=O)N[C@@H](Cc1c[nH]c2ccccc12)C(=O)N[C@@H](CO)C(=O)NC(C)(C)C(=O)N[C@@H](CCCNC(=N)N)C(=O)N[C@@H](CCCCN)C(=O)N[C@@H](CCCCNC(C)=O)C(N)=O)[C@@H](C)O)C(=O)O)C(=O)O)C(=O)O [compound 4] (Ac-LEGREKVRAK(Ac)I[Aib][Aib]EGK([Suc-X2])STWS[Aib]RKK(Ac)-NH2)

Reference: patent US11725036B2, “Modified lipidated relaxin B chain peptides and their therapeutic use” (Sanofi, priority 2018, dated 2023)
